In patent US4517179A, “Rapid dissolving, uniform drug compositions and their preparation” (priority 1984, dated 1985):
Values after ≈ are worked out from the molar mass of the structure shown.

Columns and labels:
Water solubility = type: physicochemical; details: for solubility: water
[1] = Particle size distribution by screen analysis; type: physicochemical; details: for particle size d16%: 16 weight percent; for particle size d50%: 50 weight percent; for particle size d84%: 84 weight percent
Experimental: where d is the particle diameter in μm at the indicated percentage by weight and σg is the geometric standard deviation.
The particle size distributions of drugs and excipients were determined by a screen analysis technique. A 5 gm sample of each test material was placed on the top screen of a set of six US standard screens of an Allen Bradley Sonic Sifter. The screens were pulsed for 15 minutes. The following screens were used: 80 mesh (180 μm), 100 mesh (150 μm), 140 mesh (106 μm), 200 mesh (75 μm), 270 mesh (53 μm) and 400 mesh (38 μm). The weights of the fractions retained on the screens were obtained. Particle sizes (d) at specific weight percents (16, 50, and 84) were obtained from a log probability plot of the data as described by Edmundson (Advances in Pharmaceutical Sciences, Bean, H.S. et al. Editors, Academic, London, England p. 95, 1967). These particle sizes are described as d16, d50, and d84.
The slopes of the lines from the plots were calculated to give the geometric standard deviation (σg).

[2] = result from metolazone usage; cited from earlier work
[3] = 0.01N hydrochloric acid; cited from earlier work
[4] = listed as fine-milled metolazone
[5] = listed as monocrystalline metolazone

Cc1ccccc1N1C(=O)c2cc(S(N)(=O)=O)c(Cl)cc2NC1C (centres unmarked) [metolazone, 2-methyl-3-o-tolyl-6-sulfamyl-7-chloro-1,2,3,4-tetrahydro-4-quinazolinone]
water solubility (Water solubility; 25° C.): approximately 60.3 mcg/ml | solubility (Water solubility; 25° C.): ~60 µg/mL (≈ 164 µM) | solubility (Water solubility; 36° C.): ~100 µg/mL (≈ 273 µM) | particle size d16% [1, 4]: 155 μm | particle size d16% ([1]; listed as milled metolazone): 94 μm | particle size d16% [1, 5]: 460 μm | particle size d50% [1, 4]: 86 μm | particle size d50% ([1]; listed as milled metolazone): 56 μm | particle size d50% [1, 5]: 190 μm | particle size d84% [1, 4]: 48 μm | particle size d84% ([1]; listed as milled metolazone): 34 μm | particle size d84% [1, 5]: 83 μm | side effects [2]: hypokalemia

Nc1nc(N)c2nc(-c3ccccc3)c(N)nc2n1 [triamterene]
particle size d16% [1]: 76 μm | particle size d50% [1]: 41 μm | particle size d84% [1]: 17 μm

Cc1ccccc1N1C(=O)c2cc(S(N)(=O)=O)c(Cl)cc2NC1C (centres unmarked) [amorphous and metastable metolazone]
dissolution rate relative to the stable modification (mp. 267°-270° C.) [3]: about 8 times faster
